Laboratory results published in patent publication US20250299796A1, “COMPOSITIONS AND METHODS FOR TREATING AND/OR CHARACTERIZING HEMATOLOGICAL MALIGNANCIES AND PRECURSOR CONDITIONS” (Dana-Farber Cancer Institute, Inc., priority 2021, published 2025).

Legend:
[1] = test system: patients with high-risk smoldering multiple myeloma (SMM); test: Phase II trial (E-PRISM): safety and tolerability, adverse events graded by CTCAE v4.0; details: in vivo
Description: In the treatment schema a cycle is defined as 28 consecutive days. In cycles 1 and 2, 10 mg/kg of intravenous push Elotuzumab were administered on days 1, 8, 15, and 22. In cycles 3-4, it was administered on days 1 and 15. A 25 mg dose of oral Lenalidomide was administered on days 1-21 of each cycle. In Arm A, 40 mg of oral Dexamethasone were administered on days 1, 8, 15, and 22 in cycles 1 and 2 and on days 1, 8, and 15 in cycles 3-8. Patients on maintenance treatment (cycles 9-24) were administered 20 mg/kg of intravenous push Elotuzumab on day 1 and 15 mg oral Lenalidomide on days 1-21. All patients received thromboprophylaxis.
Toxicities were monitored throughout the study and for up to 30 days after the last dose of the study drug. Adverse events (AEs) were graded according to the National Cancer Institute Common Terminology Criteria for Adverse Events (CTCAE; version 4.0; Bethesda, MD). In addition, neuropathy symptoms were assessed using the FACT/GOG-Neuropathy questionnaire (Version 4.0). Efficacy was measured using the IWMG criteria for response^31.
Forty-nine patients experienced at least one toxicity while on study with worst grades of 1-mild (n=0), 2-moderate (n=11/51, 22%), and 3-severe (n=29/51, 57%), 4-life threatening (n=7/51, 14%), and 5-fatal (n=2/51, 4%). […]

[2] = test system: immune system in patients with SMM; details: trial of Lenalidomide and Dexamethasone; cited from earlier work

SMILES: C[C@@H]1C[C@H]2[C@@H]3CCC4=CC(=O)C=C[C@]4(C)[C@@]3(F)[C@@H](O)C[C@]2(C)[C@@]1(O)C(=O)CO [Dexamethasone]
- Effect of Dexamethasone dose on type or frequency of treatment-related toxicities [1]: no effect
- Effect of once weekly high-dose Dexamethasone on the immune system [2]: does not have a detrimental effect
